According to article PMC12250605, “Recombinant Expression and Characterization of a Novel Type I Baeyer–Villiger Monooxygenase from a Streptomyces Strain Isolated from the Rhizosphere of the Atacama Desert Lupinus oreophilus” (International Journal of Molecular Sciences, 2025):

Test system: T1, MO-G35A
T1 construct: full-length, C-terminal His6 tag kept, codon-optimised gene; pET-28a (cytoplasmic) or pET-22b (pelB, periplasmic), E. coli NiCo21(DE3) or Shuffle T7; 73 kDa
Test: NADPH consumption at […] nm, sigmoidal fit
Assay type: biochemical, Streptomyces sp. G35A
Conditions: Tris-HCl pH 7.5, 30 °C (methods) or 35 °C (results), allosteric sigmoidal fit

Row | Structure (SMILES) | Km (200 µM NADPH) [µM] | Km (5 mM BHC) [µM]
1 | O=C1CC2C=CCC12 (centres unmarked) [BHC, bicyclo [3.2.0] hept-2-en-6-one] | 60 | –
2 | NC(=O)C1=CN([C@@H]2O[C@H](COP(=O)(O)OP(=O)(O)OC[C@H]3O[C@@H](n4cnc5c(N)ncnc54)[C@H](OP(=O)(O)O)[C@@H]3O)[C@@H](O)[C@H]2O)C=CC1 [NADPH] | – | 23.8
